Laboratory results published in PubChem BioAssay AID328 (DTP/NCI, 2004).
Several values for one entry are separate records, joined by “and”; a condition that tells them apart may be missing. Equal entries are not always repeated. Inconclusive results and toxic doses are left out.

Tested on: BDF1 mice, P388 leukemia ip, median survival T/C
Test: NCI In Vivo Anticancer Drug Screen. Data for tumor model P388 Leukemia (intraperitoneal) in B6D2F1 (BDF1) mice
Details: endpoint: median survival time, higher = longer survival
Outline: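 Survival ratio, drug arm over vehicle arm, in mice with a transplanted tumour.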

[1] = dose: 50.0 mg/kg/injection, schedule: Q04DX003 (ip), vehicle: saline with Tween-80
[2] = dose: 100.0 mg/kg/injection, schedule: Q04DX003 (ip), vehicle: saline with Tween-80
[3] = dose: 200.0 mg/kg/injection, schedule: Q04DX003 (ip), vehicle: saline with Tween-80
[4] = dose: 50.0 mg/kg/injection, schedule: Q04DX003 (ip), vehicle: saline
[5] = dose: 25.0 mg/kg/injection, schedule: Q04DX003 (ip), vehicle: Klucel (hydroxypropylcellulose) (HPC)
[6] = dose: 50.0 mg/kg/injection, schedule: Q04DX003 (ip), vehicle: Klucel (hydroxypropylcellulose) (HPC)
[7] = dose: 100.0 mg/kg/injection, schedule: Q04DX003 (ip), vehicle: Klucel (hydroxypropylcellulose) (HPC)
[8] = dose: 100.0 mg/kg/injection, schedule: Q04DX003 (ip), vehicle: saline
[9] = dose: 200.0 mg/kg/injection, schedule: Q04DX003 (ip), vehicle: saline
[10] = dose: 100.0 mg/kg/injection, schedule: Q01DX009 (ip), vehicle: saline with Tween-80
[11] = dose: 200.0 mg/kg/injection, schedule: Q01DX009 (ip), vehicle: saline with Tween-80
[12] = dose: 25.0 mg/kg/injection, schedule: Q01DX009 (ip), vehicle: Klucel (hydroxypropylcellulose) (HPC)
[13] = dose: 50.0 mg/kg/injection, schedule: Q01DX009 (ip), vehicle: Klucel (hydroxypropylcellulose) (HPC)
[14] = dose: 100.0 mg/kg/injection, schedule: Q01DX009 (ip), vehicle: Klucel (hydroxypropylcellulose) (HPC)

O=NN(CCCl)C(=O)N[C@H]1CCCC[C@H]1Cl
T/C (dose: 1.0 mg/kg/injection, schedule: Q01DX009 (ip), vehicle: Klucel (hydroxypropylcellulose) (HPC)): 104 % of control
T/C (dose: 1.0 mg/kg/injection, schedule: Q04DX003 (ip), vehicle: Klucel (hydroxypropylcellulose) (HPC)): 104 % of control
T/C (dose: 1.5 mg/kg/injection, schedule: Q01DX009 (ip), vehicle: Klucel (hydroxypropylcellulose) (HPC)): 116 % of control
T/C (dose: 2.0 mg/kg/injection, schedule: Q04DX003 (ip), vehicle: Klucel (hydroxypropylcellulose) (HPC)): 104 % of control
T/C (dose: 2.3 mg/kg/injection, schedule: Q01DX009 (ip), vehicle: Klucel (hydroxypropylcellulose) (HPC)): 104 % of control
T/C (dose: 4.0 mg/kg/injection, schedule: Q04DX003 (ip), vehicle: Klucel (hydroxypropylcellulose) (HPC)): 100 % of control
T/C (dose: 5.5 mg/kg/injection, schedule: Q01DX009 (ip), vehicle: Klucel (hydroxypropylcellulose) (HPC)): 153 % of control and 194 % of control
T/C (dose: 8.5 mg/kg/injection, schedule: Q01DX009 (ip), vehicle: Klucel (hydroxypropylcellulose) (HPC)): 159 % of control and 169 % of control and 216 % of control
T/C (dose: 8.5 mg/kg/injection, schedule: Q04DX003 (ip), vehicle: Klucel (hydroxypropylcellulose) (HPC)): 165 % of control
T/C (dose: 13.0 mg/kg/injection, schedule: Q01DX009 (ip), vehicle: Klucel (hydroxypropylcellulose) (HPC)): 305 % of control and 192 % of control
T/C (dose: 13.0 mg/kg/injection, schedule: Q04DX003 (ip), vehicle: Klucel (hydroxypropylcellulose) (HPC)): 235 % of control
T/C (dose: 20.0 mg/kg/injection, schedule: Q01DX009 (ip), vehicle: Klucel (hydroxypropylcellulose) (HPC)): 250 % of control and 333 % of control and 200 % of control
T/C (dose: 20.0 mg/kg/injection, schedule: Q04DX003 (ip), vehicle: Klucel (hydroxypropylcellulose) (HPC)): 270 % of control and 300 % of control
T/C (dose: 30.0 mg/kg/injection, schedule: Q01DX009 (ip), vehicle: Klucel (hydroxypropylcellulose) (HPC)): 120 % of control
T/C (dose: 30.0 mg/kg/injection, schedule: Q04DX003 (ip), vehicle: Klucel (hydroxypropylcellulose) (HPC)): 300 % of control
T/C (dose: 44.0 mg/kg/injection, schedule: Q01DX009 (ip), vehicle: Klucel (hydroxypropylcellulose) (HPC)): 104 % of control
T/C (dose: 44.0 mg/kg/injection, schedule: Q04DX003 (ip), vehicle: Klucel (hydroxypropylcellulose) (HPC)): 300 % of control
T/C (dose: 67.0 mg/kg/injection, schedule: Q04DX003 (ip), vehicle: Klucel (hydroxypropylcellulose) (HPC)): 300 % of control

O=c1cc(Cl)[nH]c(=O)[nH]1
T/C [1]: 97 % of control
T/C [2]: 114 % of control
T/C [3]: 97 % of control
T/C (dose: 400.0 mg/kg/injection, schedule: Q04DX003 (ip), vehicle: saline with Tween-80): 97 % of control

Cc1nc(NN)c(C(N)=O)nc1C
T/C (dose: 12.5 mg/kg/injection, schedule: Q01DX009 (ip), vehicle: saline): 97 % of control
T/C (dose: 25.0 mg/kg/injection, schedule: Q01DX009 (ip), vehicle: saline): 89 % of control
T/C (dose: 25.0 mg/kg/injection, schedule: Q04DX003 (ip), vehicle: saline): 106 % of control
T/C (dose: 50.0 mg/kg/injection, schedule: Q01DX009 (ip), vehicle: saline): 93 % of control and 120 % of control
T/C [4]: 102 % of control

CCc1ccc(OS(=O)(=O)c2ccccc2[N+](=O)[O-])cc1
T/C (dose: 100.0 mg/kg/injection, schedule: Q04DX003 (ip), vehicle: saline sonified): 100 % of control
T/C (dose: 200.0 mg/kg/injection, schedule: Q04DX003 (ip), vehicle: saline sonified): 100 % of control
T/C (dose: 400.0 mg/kg/injection, schedule: Q04DX003 (ip), vehicle: saline sonified): 100 % of control

CCCCCCCCCCCCNC(=O)CC(O)(CC(=O)O)C(=O)O (configuration not stated)
T/C [5]: 111 % of control
T/C [6]: 88 % of control
T/C [7]: 92 % of control

COc1ccc2nc3c4ccccc4scc-3c2c1
T/C [5]: 109 % of control
T/C [6]: 109 % of control
T/C [7]: 100 % of control
T/C (dose: 148.5 mg/kg/injection, schedule: Q04DX003 (ip), vehicle: Klucel (hydroxypropylcellulose) (HPC)): 109 % of control
T/C (dose: 150.0 mg/kg/injection, schedule: Q04DX003 (ip), vehicle: Klucel (hydroxypropylcellulose) (HPC)): 116 % of control
T/C (dose: 225.0 mg/kg/injection, schedule: Q04DX003 (ip), vehicle: Klucel (hydroxypropylcellulose) (HPC)): 100 % of control
T/C (dose: 337.5 mg/kg/injection, schedule: Q04DX003 (ip), vehicle: Klucel (hydroxypropylcellulose) (HPC)): 113 % of control

C=C(C)CC#N
T/C [4]: 100 % of control
T/C [8]: 109 % of control
T/C [9]: 109 % of control

COc1cccc2c1C(=O)c1c(O)c3c(c(O)c1C2=O)CC(O)(/C(C)=N/Nc1ccc(Cl)cc1)CC3OC1CC(N)C(O)C(C)O1 (configuration not stated)
T/C (dose: 4.08 mg/kg/injection, schedule: Q04DX003 (ip), vehicle: water): 158 % of control
T/C (dose: 6.8 mg/kg/injection, schedule: Q04DX003 (ip), vehicle: water): 157 % of control

CCCCN1CCNCC1
T/C [4]: 95 % of control
T/C [8]: 100 % of control
T/C [9]: 100 % of control

C[C@@H]1CC2=CC(=O)CC[C@@H]2[C@H]2CC[C@@]3(C)[C@@H](CC[C@]3(C)O)[C@@H]21
T/C [10]: 104 % of control
T/C [2]: 100 % of control
T/C [11]: 90 % of control

c1ccc(N2CCCCCN2c2ccccc2)cc1
T/C (dose: 50.0 mg/kg/injection, schedule: Q01DX001 (ip), vehicle: saline with Tween-80): 92 % of control
T/C (dose: 100.0 mg/kg/injection, schedule: Q01DX001 (ip), vehicle: saline with Tween-80): 90 % of control
T/C (dose: 200.0 mg/kg/injection, schedule: Q01DX001 (ip), vehicle: saline with Tween-80): 90 % of control

CCCCCCCCCCC(=O)N1CCOCC1
T/C (dose: 25.0 mg/kg/injection, schedule: Q04DX003 (ip), vehicle: saline with Tween-80): 100 % of control
T/C [1]: 104 % of control

CCC(=O)NC1=CC(=O)c2ccccc2C1=O
T/C (dose: 12.5 mg/kg/injection, schedule: Q01DX009 (ip), vehicle: Klucel (hydroxypropylcellulose) (HPC)): 109 % of control
T/C [12]: 109 % of control
T/C [13]: 122 % of control

CCS(=O)(=O)CCN1C(=O)CN=C(c2ccccc2F)c2cc(Cl)ccc21
T/C (dose: 12.5 mg/kg/injection, schedule: Q01DX009 (ip), vehicle: saline with Tween-80): 114 % of control
T/C (dose: 25.0 mg/kg/injection, schedule: Q01DX009 (ip), vehicle: saline with Tween-80): 96 % of control
T/C (dose: 50.0 mg/kg/injection, schedule: Q01DX009 (ip), vehicle: saline with Tween-80): 103 % of control and 123 % of control
T/C [10]: 90 % of control and 107 % of control

CC(=O)NN(c1ccc([N+](=O)[O-])cc1)c1ccc([N+](=O)[O-])cc1
T/C [12]: 109 % of control
T/C [13]: 109 % of control
T/C [14]: 100 % of control

Cc1nc2c(N)nn(C)c2nc1C
T/C [2]: 100 % of control
T/C [3]: 100 % of control

CCC(CO)NC(=O)/C=C/c1ccccc1Cl (configuration not stated)
T/C [11]: 91 % of control

O=C1C(N2CCN(CCO)CC2)=C(N2CC2)C(=O)C(N2CCN(CCO)CC2)=C1N1CC1
T/C (dose: 0.25 mg/kg/injection, schedule: Q01DX009 (ip), vehicle: saline): 241 % of control
T/C (dose: 0.5 mg/kg/injection, schedule: Q01DX009 (ip), vehicle: saline): 241 % of control and 249 % of control
T/C (dose: 1.0 mg/kg/injection, schedule: Q01DX009 (ip), vehicle: saline): 243 % of control
T/C (dose: 2.0 mg/kg/injection, schedule: Q01DX009 (ip), vehicle: saline): 116 % of control

COc1cc2ccc(C(C)NCC(=O)O)cc2cc1OC (configuration not stated)
T/C [14]: 100 % of control
T/C [7]: 100 % of control
T/C (dose: 200.0 mg/kg/injection, schedule: Q01DX009 (ip), vehicle: Klucel (hydroxypropylcellulose) (HPC)): 104 % of control
T/C (dose: 200.0 mg/kg/injection, schedule: Q04DX003 (ip), vehicle: Klucel (hydroxypropylcellulose) (HPC)): 100 % of control
T/C (dose: 400.0 mg/kg/injection, schedule: Q01DX009 (ip), vehicle: Klucel (hydroxypropylcellulose) (HPC)): 109 % of control
T/C (dose: 400.0 mg/kg/injection, schedule: Q04DX003 (ip), vehicle: Klucel (hydroxypropylcellulose) (HPC)): 109 % of control

CC(=O)NC(CCCCNC(=O)OCc1ccccc1)C(=O)O (configuration not stated)
T/C (dose: 50.0 mg/kg/injection, schedule: Q01DX005 (ip), vehicle: saline with Tween-80): 90 % of control
T/C (dose: 100.0 mg/kg/injection, schedule: Q01DX005 (ip), vehicle: saline with Tween-80): 93 % of control
T/C (dose: 200.0 mg/kg/injection, schedule: Q01DX005 (ip), vehicle: saline with Tween-80): 89 % of control
